Data set [1] in a line: percent clearance of activity from serum by perfusion. The class given is in vivo, Sprague-Dawley rat. The conditions noted are these: for C1: percent clearance of activity from serum: individual rat, postperfusion/preperfusion × 100. As for the experimental part: Subsequently, dosages of ^125 I-gentamicin were administered intravenously.
C1: Percent clearance of activity from serum

For data set [2], the system named is antigentamicin antibody. Description: precipitable radioactivity (% bound) in tissue and serum after antigentamicin antibody (immune serum). The class given is in vivo. From the text: (§1) Pre: Precipitable radioactivity from serum prior to antibody
(§2) Post: Precipitable radioactivity from serum after antibody administration
(§3) PPer: Precipitable radioactivity from serum after perfusion of rat
(§4) % Bound: Percent precipitable radioactivity from tissue sample

Data set [3] concerns serum proteins. The data set can be described thus: non-specific precipitation/binding of gentamicin to serum proteins and tissue (pre-antibody serum, or non-immune serum). The class given is in vivo, Sprague-Dawley rat. The conditions noted are these: non-immune serum, pre and post serum.
Text: as §1, §2, §3, §4

For data set [4] the following is noted: injected directly into the rat brain; cited from earlier work.

Where “and” joins values, the source holds several entries; their conditions need not be identical. Equal values may be shown once.

gentamicin: in data set [1] (Immune serum), the “C1: percent clearance of activity from serum” value is 99% and 97% and 92% and 95% and 94% and 96%; the “C1: percent clearance of activity from serum, mean value” came to 96%. In addition, in data set [1] (Non immune serum), the “C1: percent clearance of activity from serum” value was 84% and 86% and 85%; the “C1: percent clearance of activity from serum, mean value” came out at 85%. The “% Bound: percent precipitable radioactivity from tissue sample, LH (non abscess bearing hemisphere)” value in data set [2] (individual rat) was 49% and 55% and 52% and 41% and 50%. Further, the “% Bound, Post: precipitable radioactivity from serum after antibody administration” value in data set [2] (individual rat, 15 minutes after antibody) is 97% and 96% and 94%. Also, the “% Bound, P-Per: precipitable radioactivity from serum after perfusion of rat” value in data set [2] (individual rat, after perfusion) was 75% and 70% and 79% and 77%. In data set [2] (mean), the “% Bound (tissue), AB (abscess), mean value” is 56% and the “% Bound (tissue), LH (non abscess bearing hemisphere), mean value” is on record as 51%. The “% Bound, Post: serum precipitation after antibody, mean value” in data set [2] (mean, 15 minutes after antibody) is listed as 96%. The “% Bound, P-Per: serum precipitation after perfusion, mean value” in data set [2] (mean, after perfusion) was determined as 70%. Moreover, in data set [3], the “non-specific precipitation with serum proteins (in words)” value was “nonspecifically precipitates with serum proteins”.
Consider `CCCCC/C=C\C/C=C\C/C=C\C/C=C\CCCC(=O)O` [arachidonic acid], for which the “effect on BBB permeability” value in data set [4] is recorded as “increase BBB permeability”.
